Tests used:
Human Hepatocytes = experiment: In Vitro Hepatocyte Stability Assay (Assay 4); type: in vitro ADME; details: predicted blood clearance as percent of hepatic blood flow
Method: In Vitro Hepatocyte Stability Assay (Assay 4)
The metabolic degradation of test compounds was assayed in a hepatocyte suspension. Cryopreserved hepatocytes were incubated in an appropriate buffer system (e.g., Dulbecco's modified eagle medium plus 3.5 μg glucagon/500 mL, 2.5 mg insulin/500 mL and 3.75 mg/500 mL hydrocortison) containing 5% species serum. Following a 30 min preincubation in an incubator (37° C., 10% CO2), 5 μl of test compound solution (80 μM; from 2 mM in DMSO stock solution diluted 1:25 with medium) were added into 395 μl hepatocyte suspension (cell density in the range 0.25−5×10^6 cells/mL, typically 1×10^6 cells/mL; final concentration of test compound final DMSO concentration […]).
The cells were incubated for six h (incubator, orbital shaker) and samples (25 μl) were taken at 0, 0.5, 1, 2, 4 and 6 h. Samples were transferred into acetonitrile and pelleted by centrifugation (5 min). The supernatant was transferred to a new 96 DeepWell™ plate, evaporated under nitrogen and resuspended. Decline of compound was analyzed by HPLC-MS/MS. CLint (in vitro hepatic intrinsic clearance) was calculated as follows: CLint=Dose/AUC=(C0/CD)/(AUD+Clast/k)×1000/60
C0: initial concentration in the incubation [μM];
CD: cell density of vital cells [cells/mL];
AUD: area under the data [μM×h];
Clast: concentration of last data point [μM];
k: slope of the regression line for compound decline [h^−1].
The calculated in vitro hepatic intrinsic clearance was scaled up to the intrinsic in vivo hepatic clearance (Clint in vivo) and used to predict hepatic in vivo blood clearance (CL) by the use of a liver model (well-stirred model), as follows: CLint,in vivo[mL/min/kg]=(CLint[μL/min/10^6 cells]×hepatocellularity[10^6 cells/g liver]×liver factor [g/kg body weight])/1000 CL[mL/min/kg]=CLint,to vivo×hepatic blood flow[ml/min/kg]/(CLint,in vivo[ml/min/kg]+hepatic blood flow[mL/min/kg])
The in vivo blood clearance was transformed into percent of the hepatic blood flow (% Qh): % Qh=CL[mL/min/kg]/hepatic blood flow[mL/min/kg])×100
Hepatocellularity, human: 1.2×10^7 cells/g liver;
Liver factor, human: 25.7 g/kg body weight;
Hepatic blood flow, human: 21 mL/(min×kg).

[1] = In Vitro Phospholipidosis Assay (Assay 3), Nile red staining; type: cell-based, human; details: human, first effect concentration, U937 cells, read-out: Phospholipidosis FEC IC50 μM (assay 3)
Method: In Vitro Phospholipidosis Assay (Assay 3)
The phospholipidogenic potential of test compounds was assayed using the human hematopoetic U937 cell line. The test principle was to analyze the phospholipid content by staining the cells with the fluorescent dye Nile red.
U937 cells were seeded into cell culture plates at 0.5×10^6 cells/mL in RPMI medium containing 10% FBS, 1% DMSO, and 0.005% gentamicin. The cells were cultivated with or without different concentrations of test compound for 48 h under standard culture conditions.
For harvesting, the cells were centrifuged at 130×g for 4 min and washed once with PBS. Then, 2×0.5 mL cell suspensions were prepared for non-fixed cell measurement (0.5 mL for propidium iodide (PI) viability measurement and 0.5 mL for Nile red measurement).
The remaining cells were fixed with 3.7% formaldehyde for 30 min. After a further centrifugation step, cells were resuspended with 1.3 mL Nile red working solution (1 μg/mL) and incubated for 5 min at rt. The cell suspension was washed twice with 3 mL PBS and centrifuged with 130×g for 4 min. The supernatant was discarded and the cells were resuspended with 0.5 mL PBS and kept for flow cytometry measurement.
For Nile red staining of the 0.5 mL non-fixed cell samples, 50 μL of a ready to use Nile red solution (10 μg/mL) were added per sample. Samples were kept on ice for 5 min. Thereafter, they were washed once with 4 mL PBS (4° C., 250×g for 8 min) and finally resuspended in 400 μL PBS and kept for flow cytometry measurement.
For the viability measurement, 12.5 μL of the ready to use PI solution (10 μg/mL) were added to the 0.5 mL non-fixed cell suspension. After 15 min of incubation on ice, the samples were measured by flow cytometry using a Coulter Epics XL/MCL flow cytometer.
The viability of the cells of each sample was determined by flow cytometry measurement of the PI content at channel 2 (568-590 nm). Cut-off gates for the fluorescence-dependent differentiation between live and dead cells were defined based on the analysis of cell culture medium control samples.
Only samples with a cell viability of >=90% relative to control samples were analyzed for phospholipidosis. Each Nile red sample (non-fixed and fixed samples) was measured by flow cytometry at channel 1 (504-541 nm) and channel 4 (660-680 nm).
For each channel, relative Nile red fluorescence intensity of a test sample was calculated compared to control samples and expressed as a percentage of control fluorescence intensity. The assessment of the phospholipidogenic potential and the first effective concentration (FEC) of a test compound was done manually based on the fluorescence intensities at both wavelengths for the fixed cells, as well as for the non-fixed cells.

[2] = molecular target: truncated human beta-secretase, BACE1 (amino acids 1-454) (Homo sapiens (Human), UniProt P56817); experiment: BACE1 Assay (Assay 1), fluorescence quench assay; type: biochemical; details: pH 4.4
Method: The substrate was dissolved at 1 mg/ml in DMSO.
The assay was performed in the presence of OptiMEM™ (supernatant collected over 24 h and cleared from cellular debris by centrifugation) containing the ectodomain of BACE1, 25 μl water containing the desired 2-fold concentration of test compound and 2% DMSO, 1 μM substrate peptide, 20 mM NaOAc, pH 4.4, and 0.04% Triton-X100 in a total assay volume of 50 μl in a 384 well plate. In general, 25 μl of compound dilution were added to the plate followed by the addition of 10 μl of BACE1 containing OptiMEM™ diluted 1:10 in water with 0.2% Triton X-100. The reaction was started with the addition of 15 μl substrate in NaOAc buffer. The reaction was incubated at rt (dark) in an Envision® multilabel reader (Perkin Elmer) and the cleavage of the substrate was recorded as kinetic for […] at ex: 485 nm, em: 538 nm. Blank wells containing no enzyme were included on each plate.
The intensity of fluorescence was regressed against time in order to derive velocities of reaction in all 384 wells. These velocities were used for calculating percent control using an uninhibited control containing 1% DMSO as 100% and a blank control performed in the absence of enzyme as 0%. IC50 values were calculated by fitting percent control vs. test compound concentration using Assay Explorer®.

hERG channel = hERG channel (Homo sapiens (Human), UniProt Q12809); experiment: hERG-Channel Assay (Assay 2), whole-cell patch clamp in HEK293 cells stably transfected with hERG cDNA; type: cell-based; details: for inhibition at 10 µM: human, HEK293 cells stably transfected with hERG cDNA, pH 7.4, 35° C.
Source text: hERG-Channel Assay (Assay 2)
Cells: HEK (human embryonic kidney) 293 cells were stably transfected with hERG cDNA.
Cells were superfused with a bath solution containing (mM): NaCl (137), KCl (4.0), MgCl2 (1.0), CaCl2 (1.8), Glucose (10), HEPES (10), pH 7.4 with NaOH. Patch pipettes were made from borosilicate glass tubing using a horizontal puller and filled with pipette solution containing (mM): K-aspartate (130), MgCl2 (5.0), EGTA (5.0), K2ATP (4.0), HEPES (10.0), pH 7.2 with KOH. Resistance of the microelectrodes was in the range between 2 and 5 MΩ.
Stimulation and Recording:
Membrane currents were recorded using an EPC-10 patch clamp amplifier and PatchMaster software. hERG-mediated membrane currents were recorded at 35° C., using the whole-cell configuration of the patch-clamp technique. Transfected HEK293 cells were clamped at a holding potential of −60 mV and hERG-mediated inactivating tail currents were elicited using a pulse pattern with fixed amplitudes (activation/inactivation: 40 mV for 2000 ms; recovery: −120 mV for 2 ms; ramp to 40 mV in 2 ms; inactivating tail current: 40 mV for 50 ms) repeated at 15 s intervals. During each inter-pulse interval, 4 pulses scaled down by a factor of 0.2 were recorded for a P/n leak subtraction procedure. Rs compensation was employed up to a level that safely allowed recording devoid of ringing.
Compound Preparation and Application:
The different concentrations of the test compounds were applied sequentially on each of the different cells investigated. A steady state level of baseline current was measured for at least 6 sweeps prior to the application of the first test compound concentration.
The test compound was dissolved in DMSO to yield a master stock solution which was diluted further in DMSO to stock solutions needed for the lower concentrations. Final dilutions in extracellular buffer were prepared freshly from these stocks by a 1:1000 dilution step each before starting the experiments.
Peak current amplitudes were measured 3 ms after the ramp to +40 mV. For baseline and each concentration, the peak currents of the three last sweeps before application of the next concentration were averaged. Residual currents (I/I0) were calculated for each cell as the fraction of actual average peak current and average baseline peak current.

Chain of truncated human beta-secretase, BACE1 (amino acids 1-454) (P56817 22-454): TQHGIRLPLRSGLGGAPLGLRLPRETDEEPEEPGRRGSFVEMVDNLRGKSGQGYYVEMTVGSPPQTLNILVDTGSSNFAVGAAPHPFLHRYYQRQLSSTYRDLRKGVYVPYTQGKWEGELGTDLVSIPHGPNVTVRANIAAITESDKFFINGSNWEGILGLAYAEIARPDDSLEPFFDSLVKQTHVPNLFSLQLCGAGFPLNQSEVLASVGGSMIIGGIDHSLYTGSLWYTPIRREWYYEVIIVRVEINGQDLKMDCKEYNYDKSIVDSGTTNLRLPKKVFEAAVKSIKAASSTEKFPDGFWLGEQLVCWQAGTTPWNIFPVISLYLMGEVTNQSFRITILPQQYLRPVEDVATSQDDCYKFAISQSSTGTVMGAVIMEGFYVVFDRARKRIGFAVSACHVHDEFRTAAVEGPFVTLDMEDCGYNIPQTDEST
Chain of hERG channel (Q12809 whole entry): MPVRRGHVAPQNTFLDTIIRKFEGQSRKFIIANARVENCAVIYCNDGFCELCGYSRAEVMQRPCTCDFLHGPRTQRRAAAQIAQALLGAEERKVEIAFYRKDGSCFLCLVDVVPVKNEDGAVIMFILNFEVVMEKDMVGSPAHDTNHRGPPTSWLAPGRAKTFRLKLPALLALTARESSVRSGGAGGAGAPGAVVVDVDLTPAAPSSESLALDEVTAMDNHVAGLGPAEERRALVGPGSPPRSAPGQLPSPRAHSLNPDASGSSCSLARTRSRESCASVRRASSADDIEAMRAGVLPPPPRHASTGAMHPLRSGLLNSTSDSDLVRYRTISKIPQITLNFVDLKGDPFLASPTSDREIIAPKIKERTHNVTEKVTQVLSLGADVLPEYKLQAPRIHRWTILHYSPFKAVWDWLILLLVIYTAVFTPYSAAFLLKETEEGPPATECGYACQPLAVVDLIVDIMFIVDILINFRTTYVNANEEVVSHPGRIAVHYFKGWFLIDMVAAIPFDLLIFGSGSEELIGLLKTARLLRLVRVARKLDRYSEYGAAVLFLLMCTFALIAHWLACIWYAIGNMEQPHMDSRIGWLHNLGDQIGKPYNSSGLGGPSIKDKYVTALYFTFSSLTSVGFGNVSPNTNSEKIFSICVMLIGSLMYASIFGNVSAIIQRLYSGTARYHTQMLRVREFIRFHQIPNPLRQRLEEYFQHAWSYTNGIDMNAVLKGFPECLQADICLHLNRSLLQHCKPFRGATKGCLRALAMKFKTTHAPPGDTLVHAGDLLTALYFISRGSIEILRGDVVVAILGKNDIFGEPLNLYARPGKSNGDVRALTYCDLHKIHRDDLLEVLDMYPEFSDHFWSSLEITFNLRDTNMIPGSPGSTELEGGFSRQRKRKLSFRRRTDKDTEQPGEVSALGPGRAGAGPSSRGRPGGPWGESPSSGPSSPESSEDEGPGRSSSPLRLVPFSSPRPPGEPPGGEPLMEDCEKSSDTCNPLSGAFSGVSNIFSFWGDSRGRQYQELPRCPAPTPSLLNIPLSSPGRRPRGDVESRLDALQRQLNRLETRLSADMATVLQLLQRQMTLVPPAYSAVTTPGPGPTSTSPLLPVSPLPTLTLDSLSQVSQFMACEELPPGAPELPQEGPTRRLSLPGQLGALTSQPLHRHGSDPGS

| Compound | In vitro Human Hepatocytes % Qh @ 1 μM (assay 4) (Human Hepatocytes) | IC50 at 48 h [1] | IC50 [2] | inhibition at 10 µM (hERG channel) | % Inhibition hERG @ 10 μM (assay 2) (hERG channel; 35° C.) |
| --- | --- | --- | --- | --- | --- |
| CC[C@@H]1C[C@@]2(Cc3ccc(C#N)cc3[C@]23N=C(N)N(C[C@H]2COCCO2)C3=O)C[C@H](C)[C@H]1O [Example 8] | 19.1 % Qh | 800 µM | 1.9 nM | 6% | – |
| C[C@H]1C[C@@]2(CC[C@@H]1O)Cc1ccc(-c3cccnc3)cc1[C@]21N=C(N)N(Cc2ncccn2)C1=O [Example 12] | 0 % Qh | 100 µM | 6.8 nM | 15% | – |
| C[C@@H]1CC2(Cc3ccc(Cl)cc3[C@]23N=C(N)N(Cc2ncccn2)C3=O)C[C@H](C)[C@H]1O (stereo partly shown) [Example 11] | 0 % Qh | 200 µM | 14.6 nM | 19% | – |
| C[C@@H]1C[C@@]2(Cc3ccc(NC(=O)C(C)(C)F)cc3[C@]23N=C(N)N(CC(C)(C)F)C3=O)C[C@H](C)[C@H]1O [Example 6] | 11 % Qh | 400 µM | 6.3 nM | 1.8% | – |
| COCC(C)N1C(=O)C2(N=C1N)c1cc(C#N)ccc1CC21CCC(OC)CC1 (stereo not shown) [reference compound] | – | – | 256 nM | – | – |
| C[C@@H]1C[C@@]2(Cc3ccc(C#N)cc3[C@]23N=C(N)N(CC(C)(C)Cl)C3=O)C[C@H](C)[C@H]1O [Example 3] | 3.1 % Qh | 200 µM | 3 nM | 20% | – |
| COCCCOc1ccc2c(c1)C1(N=C(N)N(CC(F)F)C1=O)[C@]1(CC[C@H](OC)CC1)C2 (stereo partly shown) [reference compound] | 43 % Qh | 50 µM | 7.3 nM | 36% | – |
| C[C@H]1C[C@@]2(CC[C@@H]1O)Cc1ccc(C#N)cc1[C@]21N=C(N)N(CC2CC(F)(F)C2)C1=O [Example 13] | 4.2 % Qh | 200 µM | 8.7 nM | 12% | – |
| COC1CCC2(CC1)Cc1ccc(C#CC3CC3)cc1C21N=C(N)N(Cc2cncnc2)C1=O (stereo not shown) [reference compound] | 36 % Qh | 25 µM | 1.1 nM | 60% | – |
| COC1CCC2(CC1)Cc1ccc(C#N)cc1[C@]21N=C(N)N(C)C1=O (stereo partly shown) [drawing 10, reference compound] | 14 % Qh | 400 µM | – | 90% | – |
| COC1CCC2(CC1)Cc1ccc(C#CC3CC3)cc1C21N=C(N)N(Cc2ncco2)C1=O (stereo not shown) [drawing 17, reference compound] | 8.5 % Qh | – | 5.1 nM | – | 60% |
| CO[C@H]1CC[C@]2(CC1)Cc1ccc(OCC3CC3)cc1C21N=C(N)N(CCC(F)(F)F)C1=O (stereo partly shown) [reference compound] | – | – | 8.3 nM | 87% | – |
| COC1CCC2(CC1)Cc1ccc(Cl)cc1[C@]21N=C(N)N(C)C1=O (stereo partly shown) [reference compound] | – | 100 µM | – | 58% | – |
| COC1CCC2(CC1)Cc1ccc(C#CC3CC3)cc1C21N=C(N)N(Cc2ncco2)C1=O (stereo not shown) [drawing 13, reference compound] | 8.5 % Qh | – | 5.1 nM | 60% | – |
| CO[C@H]1CC[C@]2(CC1)Cc1ccc(CCC(C)C)cc1C21N=C(N)N(CC(F)(F)F)C1=O (stereo partly shown) [reference compound] | 88 % Qh | – | 3.5 nM | 89% | – |

— US9018391B2, “Inhibitors of beta-secretase” (Boehringer Ingelheim International GmbH, priority 2012, dated 2015)
